Source: a melting point compilation (Tetko et al.; mined from patent text by program, amines drawn as free bases though some values may be those of a salt)

First: O=C1c2ccccc2C(=O)N1CCc1cccc(N2C(=O)N(c3c(Cl)cccc3Cl)Cc3cnc(Nc4ccccc4)nc32)c1
Second: Nc1ccccc1NC(=O)c1ccc(C(=O)Nc2cccc(Nc3nc(-c4cccnc4)cs3)c2)s1
The melting point of the first is lower: 142 °C for the first, 222 °C for the second.

Compared with `CCC(CC)n1nnc2c(Cl)nc(C)cc21`, `CCCc1nc(S(C)=O)c(C(=O)OCC)n1Cc1cc2c(cc1Cl)OCO2` (centres undefined) is higher in melting point: 78 to 79 °C for the first, 187 °C for the second.

Compared with `NC1c2ccccc2CC2CCCCC21` (centres undefined), `O=C(NC1CCCc2ccccc21)c1ccc([N+](=O)[O-])cc1` (centres undefined) is higher in melting point: 37 to 39 °C for the first, 156 to 157 °C for the second.

Compared with `CC(C)CCOCC(O)C(CC(C)C)NC(=O)C(Cc1c[nH]cn1)NC(=O)C(CC(=O)NCCc1ccccc1)Cc1cccc2ccccc12` (mixture of isomers), `CC(C)(C)OC(=O)NCC(=O)Nc1cccc(NC(=O)C(=O)N2CCC(Cc3ccccc3)CC2)c1` is higher in melting point: 73 to 76 °C for the first, 81 to 85 °C for the second.

First: O=c1ccc2cc(C(O)(C(F)(F)F)C(F)(F)F)cc3c2n1CCC3
Second: CC(C)C12COc3cc(Cl)ccc3C1=NN(C(=O)Nc1ccc(C(F)(F)F)cc1)C2 (centres undefined)
The melting point of the first is higher: 295 to 296 °C for the first, 150 to 152 °C for the second.

First: Nc1ccc(-c2ncccn2)cc1
Second: N#Cc1cccc(CN2CCN(c3ccc(N)cc3)CC2)c1
The melting point of the first is higher: 236 to 238 °C for the first, 79 to 81 °C for the second.

First: CCCCC1=C(C=Cc2ccc(N(CCCC)CCCC)cc2OC)CC(C)(C)CC1=CC=CC1=C(C#N)C(=C(C#N)C#N)OC1(c1ccccc1)C(F)(F)F (centres undefined)
Second: CCNC(=O)c1c(C2CC2)nc(CC)n1Cc1ccc2oc(-c3ccccc3NS(=O)(=O)C(F)(F)F)cc2c1
The melting point of the first is lower: 109 to 113 °C for the first, 165 to 172 °C for the second.

First: O=C(NCc1ccncc1)c1cc2ccnc(NCc3ccccc3)c2[nH]1
Second: O=C(CCc1cccnc1)Nc1cccc(-c2ccnc3c(C(=O)c4cccs4)cnn23)c1
The melting point of the first is lower: 199 to 200 °C for the first, greater than 200 °C for the second.

First: COc1ccc(C(=O)n2c(Br)c(Br)c(C#N)c2Br)cc1
Second: C=Cc1nc(-c2ccco2)c2ncn(Cc3ccc(OC)cc3)c2n1
The melting point of the first is lower: 86 to 89 °C for the first, 94 to 95 °C for the second.

First: CSc1c2c3c(cccc3n1CO)C1C=C(C)CN(C)C1C2 (centres undefined)
Second: CCc1cc2c(c(Cl)cc(=O)n2Cc2ccc(C(=O)O)cc2)c(CC)n1
The melting point of the first is lower: 133 to 135 °C for the first, 250 to 253 °C for the second.

First: CN(C)C(=O)N1CCc2ccc(S(=O)(=O)NC(=O)NC3CCCC3)cc2CC1
Second: O=S1(=O)NC(Cc2ccccc2)Nc2ccc(S(=O)(=O)N3CCCCC3)cc21 (centres undefined)
The melting point of the first is lower: 179 to 180 °C for the first, 242 to 244 °C for the second.

Compared with `COc1ccc2c(c1)c(CCON)c(C)n2Cc1ccc(Cl)cc1`, `CC(C)(C)C(=O)C(Oc1ccc(Cl)cc1)c1ccccc1` (centres undefined) is higher in melting point: 92 to 94 °C for the first, 103 °C for the second.

Compared with `c1ccc2c(c1)N=C(c1ccncc1)c1cccc3c1N2CC3`, `CN1C(=O)[C@@H](NC(=O)C=Cc2ccccc2)N=C(c2ccccc2)c2ccccc21` is lower in melting point: 152 to 153 °C for the first, 126 to 140 °C for the second.

First: COC(=O)NC(=N)c1ccc(-n2nc(C)n(-c3ccc(CCC(=O)OCC(C)C)cc3)c2=O)cc1
Second: COc1cc2ccccc2cc1C(=O)NNC(=O)c1ccc2ccccc2c1
The melting point of the first is higher: 200 to 201 °C for the first, 194 to 196 °C for the second.

Compared with `CCCCCCCCCCCCCCOc1ccc(CN2C(=O)c3ccncc3C2=O)cc1`, `CCCCCCCCCCCCCCOc1ccc(CC(=O)Nc2ccc(CBr)cc2)cc1` is higher in melting point: 76 to 77 °C for the first, 110 to 115 °C for the second.

First: CC(C)C(=O)Nc1ccc(Br)c(C(F)(F)F)c1
Second: CC(C)N(O)C(=O)Nc1cccc(S(C)(=O)=O)c1
The melting point of the first is lower: 126 to 128 °C for the first, 168 to 169 °C for the second.

First: Cc1ccc(-c2ccc3c(c2)C=C(C(=O)Nc2ccc(CN4CCCCC4)cc2)CO3)cc1
Second: CCOC(=O)C=Cc1ccc2c(c1)ncn2-c1cccc(N2CCCCC2)c1
The melting point of the first is higher: 196 to 197 °C for the first, 85 to 87 °C for the second.

Compared with `O=C(O)c1cc(Cl)c(C(=O)O)c([N+](=O)[O-])c1Cl`, `N#Cc1cc(C(=O)NCc2cccc([N+](=O)[O-])c2)c(OCC(=O)O)cc1F` is lower in melting point: 287 to 288 °C for the first, 179 to 180 °C for the second.

First: COc1ccc(CCNc2nc(Cl)nc(N3CCc4cc(OC)c(OC)cc4C3)n2)cc1OC
Second: COc1cc2c(cc1-c1cccnc1)-c1c(-c3cccnc3)c3c(n1CC2)C(=O)N(C(C)(C)C)CCC3
The melting point of the first is lower: 152 to 153 °C for the first, 310 to 312 °C for the second.

Compared with `Cc1nn(C)cc1C(=O)NC(C#N)c1ccsc1` (centres undefined), `C#CCn1c(-c2ccccc2)nn(C(C)(C)C)c1=O` is lower in melting point: 113 to 114 °C for the first, 82 to 83 °C for the second.

Compared with `COc1ccccc1N1CCN(CCn2cnc3sc(C(=O)N(C)C)c(C)c3c2=O)CC1`, `CC(C(=O)N1CCOCC1)N1CCN(c2ccccc2)CC1` (centres undefined) is lower in melting point: 188 to 190 °C for the first, 105 to 107 °C for the second.

First: O=C(O)c1ccccc1-c1ccc(-c2ccc(C(F)(F)F)cc2)o1
Second: NCCc1cc2c(-c3ccccc3)c(CC(=O)Nc3ccc(Cl)cc3C(F)(F)F)c(=O)oc2cc1Cl
The melting point of the first is higher: 182 to 183 °C for the first, 165 to 167 °C for the second.

First: O=C1[C@H]2CCC[C@H]2Nc2ccccc2N1Cc1ccc([N+](=O)[O-])cc1 (relative stereo)
Second: O=C(OC1CCN(c2ccc3[nH]c(=O)ccc3c2)CC1)c1ccccc1
The melting point of the first is lower: 154 to 155 °C for the first, 212 to 215 °C for the second.

First: OC[C@H]1COc2ccc3scc(Cl)c3c2O1
Second: CC(C)N(c1cccc2cc(-c3ncc(CCl)s3)[nH]c12)S(=O)(=O)c1cccs1
The melting point of the first is lower: 92 to 93 °C for the first, 184 to 185 °C for the second.

Going from `CCCCCCCCCCCCCc1nnc(C=Cc2ncc([N+](=O)[O-])n2C)s1` to `c1coc(CCCCCCOc2ccc(C3=NCCO3)cc2)c1`, the melting point falls from 91 °C to 74 °C.

Compared with `Cn1ncc(C(=O)O)c1C(=O)Nc1ccn2nc(-c3ccccc3)nc2c1`, `COc1cc(-n2cc(F)c(F)c2)ccc1-n1cc(OC)c(=O)c(-c2ccnn2-c2ccccc2)n1` is lower in melting point: greater than 300 °C for the first, 206 to 207 °C for the second.

Compared with `CC1(C)CNc2cc3[nH]c(-c4ccncc4)nc3cc21`, `C=CCn1cc2cc3ncc(-c4ccc(OC)c(F)c4)nc3cc2n1` is higher in melting point: 147 to 149 °C for the first, 196 to 200 °C for the second.

First: CC(C)(C)NC(=O)NOCC(O)CN1CCCCC1 (centres undefined)
Second: COC(=O)CCNC(=O)C1CCCN1C(=O)OC(C)(C)C (centres undefined)
The melting point of the first is higher: 71 to 73 °C for the first, 70 °C for the second.

Compared with `CCc1c(CC#N)ccc(OCc2ccccc2)c1OCc1ccccc1`, `N#CNC(=Nc1ccncc1)NCCOc1ccccc1` is higher in melting point: 44 to 47.5 °C for the first, 167 to 170 °C for the second.

First: CN1CCc2c([nH]c3ccc(NS(=O)(=O)c4c(Cl)nc5sccn45)cc23)C1
Second: CCCCN1CCC(CNC(=O)c2ccc(N)n3c(Cl)c(CC)nc23)CC1
The melting point of the first is higher: 232 to 233 °C for the first, 86 to 90 °C for the second.

`Cc1ccc(C=CCN2CCc3nc(N)sc3CC2)cc1` and `N#Cc1ccc(N2CC=C(N3CCCC3)CC2)cc1` cannot be ordered by melting point: 126 to 130 °C for the first, 126 to 129 °C for the second.

Going from `O=[N+]([O-])c1ccccc1COc1cc[nH]n1` to `O=c1c2ccccc2[nH]n2cccc12`, the melting point rises from 87 °C to greater than 300 °C.

First: CCC(=O)OCC(OC(=O)CC)c1nc2c(C(F)(F)F)cccc2c(O)c1C(=O)Nc1nccs1 (centres undefined)
Second: CCCCCN(CC(=O)OCC)C(=O)C(CCC(=O)O)CS(=O)(=O)c1ccc2ccccc2c1 (centres undefined)
The melting point of the first is higher: 206 °C for the first, 77 to 80 °C for the second.

First: CNNC(=O)c1ccc(C(=O)NNC)cc1
Second: CS(=O)(=O)N(Cc1cncnc1)c1ccc(F)cc1F
The melting point of the first is higher: 240 to 241 °C for the first, 142 to 145 °C for the second.

In the case of `N#CC1CN1C(=O)NSC(F)(F)F` (centres undefined), the melting point is reported as 83 to 85 °C.
